Experimental data: paper PMC7665192, “A natriuretic peptide from Arabidopsis thaliana (AtPNP-A) can modulate catalase 2 activity” (Scientific Reports, 2020)
Positions of bridges follow the written chain, without caps; N, C: chain ends. Residues, ends and D or L forms follow the SMILES beside them. *: point of attachment. Biotin = O=C1N[C@H]2[C@H](CS[C@H]2CCCCC(=O)*)N1

Tests used:
CAT = test: Total CAT activity in protein extracted from WT seedlings; format: biochemical, Arabidopsis thaliana; details: 1 nM
Experimental: Enzymatic activity of CAT isozymes and total CAT activities of protein extracted from WT and atpnp-a or cat2-2 mutant lines, when indicated sprayed with 1 nM pAtPNP-A or pScr 20 min before harvesting, were determined zymographically and spectrophotometrically, as described in[56]. Relative quantification of intensity of bands corresponding to different CAT isoforms was performed with ImageJ version 1.48 (https://imagej.nih.gov/ij/). Enzymatic activity of the rCAT2 in the presence of absence of 100 nM rAtPNP-A, pAtPNP-A or pScr were determined with the use of Amplex Red catalase assay kit (Invitrogen) according to the manufacturer’s instructions.
Figure 3 AtPNP-A directly interacts with CAT2 to modulate its enzymatic activity in vitro. (a) Zymogram depicting changes in the enzymatic activity of CAT isoforms extracted from wild type (WT) or cat2-2 knockout mutant seedlings in response to 1 nM pAtPNP-A or pScr. Densitometric semi-quantification of bands corresponding to CAT2, normalized to the loading control (dark-coloured band on zymogram) for WT samples treated with 1 nM pAtPNP-A or pScr (mean ± SD, Student’s t-test, n = 3, P < 0.05). […] (b) Total CAT activity in protein extracted from WT seedlings assayed with Amplex Red catalase assay kit in the presence of 1 nM pAtPNP-A, rAtPNP-A, or pScr. […] (c) Enzymatic activity of rCAT2 in the presence of 100 nM pAtPNP-A, rAtPNP-A, or pScr.

CAT2 = test: Protein-peptide cross-linking, affinity-based isolation and LC–MS/MS; format: binding, Arabidopsis thaliana; details: biotinylated pAtPNP-A, cross-linking in A. thaliana mesophyll cell protoplasts; data set published in ref 44
Experimental: Cross-linking experiments followed by affinity-based isolation and LC-MS/MS identification of […] interactors were performed on A. thaliana (Col-0) wild type (WT) mesophyll cell protoplasts (MCPs) as described in[44].

leaf discs of WT plants = test: Oxidative burst (ROS) in leaf discs; set-up: species or system Arabidopsis thaliana; details: leaf discs pre-treated with 100 nM rAtPNP-A for 30 min, then 1 μM flg22, luminol luminescence, 1 h, n = 11–12, P < 0.01
Experimental: Leaf discs (0.196 cm[2]) of 4-week-old WT plants were incubated overnight floating on 0.1 mL water in 96-well titer plate, with one disc per well. The following day the leaf discs were pre-treated with 100 nM rAtPNP-A or mock for 30 min. For ROS detection horseradish peroxidase and luminol (Sigma-Aldrich) were added to a final concentration of 10 μg mL^−1 and 100 μM, respectively. Luminescence was measured directly after addition of either 1 μM of flg22 or 100 nM rAtPNP-A in a MicroLumat LB96P plate reader (Berthold Technologies) for 1 h and is shown in relative light units.
Supplementary Figure S2. AtPNP-A participates in plant immunity.
Kinetics of ROS production after treatment of leaf discs with 1 μM flg22 with or without pre-treatment with 100 nM recombinant AtPNP-A (rAtPNP-A), or after treatment with rAtPNP-A only. Data are shown as mean ± SEM (two-way repeated measure ANOVA followed by Tukey’s multiple comparison test, n = 11 – 12, * P < 0.01). Total production of ROS during 60 min after treatment with rAtPNP-A, flg22, or flg22 and rAtPNP-A pre-treatment is shown as median ± SD (one-way ANOVA and Tukey-Kramer multiple comparison test, n = 11 – 12, P < 0.01) with statistically significant differences indicated by different letters.
(1 picture or pasted object on this page, not shown here)

[1] = test system: CLA, 1-deoxy-D-xylulose-5-phosphate synthase; test: Yeast two-hybrid (Y2H) screen; format: binding, A. thaliana; details: bait AtPNP-A amino acids 26–130, prey At4g15560.1
Experimental: (§1) The Y2H screen using AtPNP-A as bait was carried out by Dualsystems Biotech AG (Zurich, Switzerland). The bait construct for the screening was made by subcloning the cDNA fragment encoding exported portion of AtPNP-A (amino acids 26 to 130) (Fig. 1a) into the pLexA-DIR vector (Dualsystems Biotech AG). The bait construct was transformed into the strain NMY32 (MATa his3Δ200 trp1-901 leu2-3,112 (lexAop)8-ADE2 LYS2::(lexAop)4-HIS3 URA3::(lexAop)8-lacZ GAL4) using standard procedures. Correct expression of the bait was verified by western blotting of cell extracts using a mouse monoclonal antibody directed against the LexA domain (Dualsystems Biotech AG). The absence of self-activation was verified by co-transformation of the bait together with a control prey and selection on minimal medium lacking tryptophan, leucine, and histidine (selective medium). For the Y2H screen, the bait was co-transformed together with a normalized A. thaliana universal P02403 cDNA library (Dualsystems Biotech AG) into NMY32. 3.1 × 10^6 transformants were screened, yielding 96 transformants that grew on selective medium. […] Library plasmids were isolated from positive clones. The identity of positive interactants was determined by sequencing. DNA sequences translated in all three reading frames and searching against the SwissProt database using the BLASTX algorithm (https://blast.ncbi.nlm.nih.gov).

[2] = test system: ERF7, ethylene response factor 7; test: Yeast two-hybrid (Y2H) screen; format: binding, A. thaliana; details: bait AtPNP-A amino acids 26–130, prey At3g20310.1
Experimental: as §1

[3] = test system: ERP/AP2, ethylene response factor; test: Yeast two-hybrid (Y2H) screen; format: binding, A. thaliana; details: bait AtPNP-A amino acids 26–130, prey At5g07580.1
Experimental: as §1

[4] = test system: PGR1, photosynthetic electron transfer C; test: Yeast two-hybrid (Y2H) screen; format: binding, A. thaliana; details: bait AtPNP-A amino acids 26–130, prey At4g03280.1
Experimental: as §1

[5] = test system: Protein containing PAM2 motif; test: Yeast two-hybrid (Y2H) screen; format: binding, A. thaliana; details: bait AtPNP-A amino acids 26–130, prey At4g14270.1
Experimental: as §1

[6] = test system: SHA1, shoot apical meristem arrest 1; test: Yeast two-hybrid (Y2H) screen; format: binding, A. thaliana; details: bait AtPNP-A amino acids 26–130, prey At5g63780.1
Experimental: as §1

Compound	Total CAT activity of protein extracts (CAT; WT seedling protein, Amplex Red kit, mean ± SD, n = 3, P < 0.05)	H2O2 breakdown by WT seedling protein extract (CAT; total protein extracted from WT seedlings, n = 3)	Identification of CAT2 by LC–MS/MS (CAT2)	Effect on flg22-induced oxidative burst (leaf discs of WT plants)	Effect on flg22-induced oxidative burst (leaf discs of WT plants; listed as AtPNP)	Effect on flg22-induced oxidative burst (leaf discs of WT plants; listed as PNP)	Strength of binding [1]	Strength of binding [2]	Strength of binding [3]	Strength of binding [4]	Strength of binding [5]	Strength of binding [6]
CC(C)C[C@@H]1NC(=O)[C@H](CC(N)=O)NC(=O)[C@H](CC(N)=O)NC(=O)[C@H](CCCCN)NC(=O)[C@H](C(C)C)NC(=O)CNC(=O)[C@H](C(C)C)NC(=O)[C@H](C(C)C)NC(=O)[C@H](CC(C)C)NC(=O)[C@H]([C@@H](C)O)NC(=O)[C@H](CCC(=O)O)NC(=O)[C@H](CCCNC(=N)N)NC(=O)[C@H](CCC(N)=O)NC(=O)[C@H]([C@@H](C)O)NC(=O)CNC(=O)[C@H](Cc2ccc(O)cc2)NC(=O)[C@@H](NC(=O)[C@H](C)NC(=O)[C@H](CO)NC(=O)[C@H](CCCNC(=N)N)NC(=O)[C@@H](NC(=O)[C@H](Cc2ccc(O)cc2)NC(=O)[C@@H]2CCCN2)[C@@H](C)O)CSSC[C@@H](C(=O)NCC(=O)N[C@@H](CCCNC(=N)N)C(=O)N[C@@H](CCCNC(=N)N)C(=O)N[C@@H](Cc2ccc(O)cc2)C(=O)N[C@@H](CCCNC(=N)N)C(=O)N[C@H](C(=O)N[C@@H](CCCNC(=N)N)C(=O)N[C@@H](CCCCNC(=O)CCCC[C@@H]2SC[C@@H]3NC(=O)N[C@@H]32)C(=O)O)C(C)C)NC(=O)[C@H](C)NC(=O)[C@H](CCCNC(=N)N)NC(=O)CNC(=O)[C@H](CC(N)=O)NC(=O)[C@H](CCC(N)=O)NC(=O)[C@H](Cc2c[nH]c3ccccc23)NC1=O [pAtPNP-A] (H-PYTRSACYGTQRETLVVGVKNNLWQNGRACGRRYRVRK(Biotin)-OH; disulfide 7-30; N-terminus and C-terminus assumed)	elevated total CAT activity	more rapid H2O2 breakdown	CAT2 was identified by LC–MS/MS only in samples containing pAtPNP-A									
AtPNP-A: An A. thaliana PNP, termed AtPNP-A (At2g18660; Q9ZV52)				enhanced flg22-induced oxidative burst	enhances responses to flg22	enhances oxidative burst	Weak	Strong	Strong	Weak	Moderate	Strong
